The values below come from patent US7601713B2, “Kinase inhibitors and their uses” (Rigel Pharmaceuticals, Inc., priority 2005, dated 2009).

The target in test [1] is kinase Lyn b (Homo sapiens, UniProt P07948). Description: Lyn b kinase inhibition. It is filed as biochemical.
In test [2] the test system is JAK kinases (JAK1 and JAK3). Briefly: JAK inhibition: IL-4-stimulated CD23 upregulation in human Ramos B-cells, FACS. It is filed as cell-based. The following applies: IL-4 stimulated Ramos B-cells, read-out: IC50, inhibition of JAK kinases in cellular assay. On the procedure:
JAK inhibition was tested in human Ramos B-cells activated with IL-4. Twenty to 24 hours post stimulation, the cells are stained for upregulation of CD23 and analyzed by FACS. Stimulation of the B-cells with IL-4 leads to the activation of the JAK/STAT pathway through phosphorylation of the JAK kinase JAK1 and JAK3, which in turn phosphorylate and activate transcription of factor […].
For the assay, human Ramos B-cells (ATCC, Catalog No. CRL-1596) are cultured in RPMI 1640 medium (Cellgro, Catalog No. 10-040-CM) containing 10% fetal bovine serum (JRH, Catalog No. 12106-500M) according to the propagation protocol supplied with the cells, and maintained at a density of approximately 3.5×10^5 cells/ml. The day before the assay, the cells are diluted to 3.5×10^5 cells/ml to insure they are in the logarithmic growth phase. The cells are spun down, and suspended in RPMI 1640 medium containing 5% fetal bovine serum to a density of 3.5×10^4 cells/ml and aliquots dispensed into a 96-well tissue culture plate. Cells are incubated with test compound (dissolved in DMSO) or DMSO (control) for 1 hr at 37° C. and then stimulated with IL-4 (Pepotech, Catalog No. 200-04) for 20-24 hours (final concentration is 50 Units/ml). Cells are then spun down, stained with anti-CD23-PE antibody (BD Pharmigen, Catalog No. 555711) and analyzed by FACS.

The target in test [3] is Lck kinase (Homo sapiens, UniProt P06239). Description: Lck kinase inhibition. The format is biochemical.
Test [4] addresses Syk kinase (Homo sapiens, UniProt P43405). Briefly: cell-based Syk assay. The settings on record: read-out: IC50, inhibition of Syk kinase.
Test [5] has as its target T1, Axl kinase (Homo sapiens, UniProt P30530).
T1 construct: endogenous in cells; host or cells: HeLa cells
T1 sequence (P30530 26-894): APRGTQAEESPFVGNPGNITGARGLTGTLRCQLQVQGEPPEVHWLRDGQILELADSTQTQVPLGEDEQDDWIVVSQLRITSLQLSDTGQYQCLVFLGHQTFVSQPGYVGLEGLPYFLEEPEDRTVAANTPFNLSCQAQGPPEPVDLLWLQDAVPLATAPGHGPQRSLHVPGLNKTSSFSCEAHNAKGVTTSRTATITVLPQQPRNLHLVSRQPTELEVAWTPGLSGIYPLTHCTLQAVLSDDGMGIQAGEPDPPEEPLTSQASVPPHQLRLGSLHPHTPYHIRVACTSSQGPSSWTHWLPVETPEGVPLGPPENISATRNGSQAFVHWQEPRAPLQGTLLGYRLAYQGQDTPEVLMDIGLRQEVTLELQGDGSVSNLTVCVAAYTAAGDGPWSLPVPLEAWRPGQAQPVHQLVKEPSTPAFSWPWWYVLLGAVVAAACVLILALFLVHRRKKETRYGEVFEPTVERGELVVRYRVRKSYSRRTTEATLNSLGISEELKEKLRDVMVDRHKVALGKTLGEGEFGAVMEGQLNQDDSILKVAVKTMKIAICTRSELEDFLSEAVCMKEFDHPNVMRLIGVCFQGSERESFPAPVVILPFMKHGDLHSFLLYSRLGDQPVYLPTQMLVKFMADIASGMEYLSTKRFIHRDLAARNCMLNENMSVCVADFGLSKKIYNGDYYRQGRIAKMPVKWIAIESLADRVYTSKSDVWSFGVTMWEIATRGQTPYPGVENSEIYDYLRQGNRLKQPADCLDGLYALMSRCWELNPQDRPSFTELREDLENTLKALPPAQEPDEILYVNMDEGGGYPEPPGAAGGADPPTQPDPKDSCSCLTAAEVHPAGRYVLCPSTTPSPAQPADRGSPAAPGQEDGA
Briefly: Phospho-Akt in-cell Western assay (Axl antibody cross-linking, Hela cells). The following applies: phospho-Akt readout, read-out: IC50, inhibition of Axl kinase. The format is cell-based. The method in brief:
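HeLa cells were starved 24 h in 0.5% FCS with 500 ng/mL Axl/Fc, pretreated with compound 1 h at 37 °C, then stimulated 5 min by cross-linked anti-Axl antibodies. Phospho-Akt was detected by in-cell chemiluminescent immunoassay and normalized to crystal violet cell number at 590 nm.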

Test [6] deals with tumor cell lines. The following applies: cited from earlier work; for antiproliferative activity against tumor cell types: in vitro assays, variety of tumor cell lines.

Like-named read-outs stand apart in the source and are kept apart here. Some results are limits rather than exact numbers.

Sequence of kinase Lyn b (P07948 1-491 isoform P07948-2): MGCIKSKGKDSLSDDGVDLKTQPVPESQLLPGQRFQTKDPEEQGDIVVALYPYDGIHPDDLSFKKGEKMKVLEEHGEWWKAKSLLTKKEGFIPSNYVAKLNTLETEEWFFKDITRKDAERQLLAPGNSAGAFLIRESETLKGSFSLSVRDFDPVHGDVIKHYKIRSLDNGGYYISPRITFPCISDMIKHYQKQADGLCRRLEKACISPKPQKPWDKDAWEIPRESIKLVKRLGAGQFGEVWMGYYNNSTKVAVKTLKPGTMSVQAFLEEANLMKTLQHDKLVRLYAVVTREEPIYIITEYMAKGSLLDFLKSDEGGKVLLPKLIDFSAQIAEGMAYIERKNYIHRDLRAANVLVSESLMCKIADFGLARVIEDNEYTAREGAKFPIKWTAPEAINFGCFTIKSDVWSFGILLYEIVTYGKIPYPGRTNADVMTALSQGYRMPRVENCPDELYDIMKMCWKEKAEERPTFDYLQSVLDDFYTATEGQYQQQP
Sequence of Lck kinase (P06239 whole entry): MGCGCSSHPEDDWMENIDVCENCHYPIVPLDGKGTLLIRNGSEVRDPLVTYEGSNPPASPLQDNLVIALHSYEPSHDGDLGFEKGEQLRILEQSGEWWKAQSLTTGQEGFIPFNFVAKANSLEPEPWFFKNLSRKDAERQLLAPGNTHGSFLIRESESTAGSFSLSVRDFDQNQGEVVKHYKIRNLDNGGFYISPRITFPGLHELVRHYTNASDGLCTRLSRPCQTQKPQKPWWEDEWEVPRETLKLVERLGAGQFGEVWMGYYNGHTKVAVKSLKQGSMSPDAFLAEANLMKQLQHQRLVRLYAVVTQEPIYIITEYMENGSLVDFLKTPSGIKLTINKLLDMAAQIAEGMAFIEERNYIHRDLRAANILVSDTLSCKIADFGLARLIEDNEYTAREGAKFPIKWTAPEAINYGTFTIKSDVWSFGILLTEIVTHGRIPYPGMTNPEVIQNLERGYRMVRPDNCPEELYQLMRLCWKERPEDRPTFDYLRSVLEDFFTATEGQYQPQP

In the case of `CNC(=O)COc1cccc(Nc2nc(NC3C4C=CC(C4)C3C(N)=O)c3nc[nH]c3n2)c1` (racemic) [Compound 104], in test [1], the IC50 is below 1 µM.

On to `NC(=O)C1C2C=CC(C2)C1Nc1nc(Nc2ccc3c(c2)OCC(=O)N3)nc2[nH]cnc12` (racemic) [Compound 107, Racemic-(2-exo,3-exo)-N6-(3-aminocarbonylbicyclo[2.2. 1]hept-5-en-2-yl)-N2-(3,4-dihydro-3-oxo-2H-1,4-benzoxazin-7-yl)-1H-purine-2,6-diamine], for which the IC50 in test [1] was below 1 µM.

`CCOc1cccc(Nc2nc(NC3C4C=CC(C4)C3C(N)=O)c3nc[nH]c3n2)c1` (racemic) [Compound 131, Racemic-(2-exo,3-exo)-N6-(3-aminocarbonylbicyclo[2.2. 1]hept-5-en-2-yl)-N2-(3-ethoxy)phenyl-1H-purine-2,6-diamine] came in with an IC50 in test [1] below 1 µM.

Take `Cc1ccc(Nc2nc(NC3C4C=CC(C4)C3C(N)=O)c3nc[nH]c3n2)cc1F` (racemic) [Compound 134, Racemic-(2-exo,3-exo)-N6-(3-aminocarbonylbicyclo[2.2. 1]hept-5-en-2-yl)-N2-(3-fluoro-4-methy)phenyl-1H-purine-2,6-diamine]: in test [1], the IC50 is below 1 µM.

Take `NC(=O)C1C2C=CC(C2)C1Nc1nc(Nc2cccc3[nH]ccc23)nc2[nH]cnc12` (racemic) [Compound 135, Racemic-(2-exo,3-exo)-N6-(3-aminocarbonylbicyclo[2.2. 1]hept-5-en-2-yl)-N2-(1H-indol-4-yl)-1H-purine-2,6-diamine]: the results for the half-maximal inhibitory concentration (IC50) in test [2] and in test [3] were above 10 µM and below 5 µM, respectively.

For the molecule `Cc1cccc(Nc2nc(NC3CC4CCC3C4)c3nc[nH]c3n2)c1` (racemic) [Compound 151, Racemic-(2-exo)-N6-(bicyclo[2.2.1]hept-2-yl)-N2-(3-methyl)phenyl-1H-purine-2,6-diamine], the 50% inhibitory concentration (IC50) in test [3] is below 5 µM; in test [4] it was below 10 µM.

Consider `NC(=O)c1c[nH]c2ccc(Nc3nc(NC4C5C=CC(C5)C4C(N)=O)c4nc[nH]c4n3)cc12` (racemic) [Compound 152, Racemic-(2-exo,3-exo-)-N6-(3-aminocarbonylbicyclo[2.2. 1]hept-5-en-2-yl)-N2-(3-aminocarbonyl-1H-indol-5-yl)-1H-purine-2,6-diamine], for which the IC50 is above 10 µM in test [2] and below 5 µM in test [3].

For the molecule `COc1cccc(Nc2nc(NC3CC4CCC3C4)c3nc[nH]c3n2)c1` (racemic) [Compound 154, Racemic-(2-exo)-N6-(bicyclo[2.2.1]hept-2-yl)-N2-(3-methoxy)phenyl-1H-purine-2,6-diamine], the IC50 in test [1] was below 1 µM.

`Cc1cccc(Nc2nc(NC3C4CCC(C4)C3C(N)=O)c3cc[nH]c3n2)c1` (racemic) [Compound 165, Racemic-(2-exo,3-exo)-N4-(3-aminocarbonylbicyclo[2.2. 1]hept-2-yl)-N2-(3-methyl)phenyl-1H-pyrrolo[2,3-d]pyrimidine-2,4-diamine]: the IC50 in test [3] was below 5 µM.

For `COc1cccc(Nc2nc(NC3C4CCC(C4)C3C(=O)NN)c3cc[nH]c3n2)c1` (racemic) [Compound 231, Racemic-(2-exo,3-exo)-N4-(3-hydrazidebicyclo[2.2. 1]hept-2-yl)-N2-(3-methoxyphenyl)-1H-pyrrolo[2,3-d]pyrimidine-2,4-diamine], the IC50 is below 5 µM in test [2], below 10 µM in test [5] and below 5 µM in test [4].

Consider `COc1ccc(Nc2nc(NC3C4C=CC(C4)C3C(N)=O)c3scc(C)c3n2)cc1` (racemic) [Compound 237, Racemic-(2-exo,3-exo-)-7-methyl-N4-(3-aminocarbonylbicyclo [2.2.1]hept-5-en-2-yl)-N2-[4-methoxyphenyl]-thieno[3,2-d]pyrimidine-2,4-diamine], for which the half-inhibitory concentration (IC50) is below 5 µM in test [2], above 10 µM in test [5] and above 10 µM in test [4].

For `COc1cc(Nc2nc(NC3C4C=CC(C4)C3C(N)=O)c3scc(C)c3n2)cc(OC)c1OC` (racemic) [Compound 238], the IC50 in test [2] was below 5 µM; in test [5], above 10 µM; in test [4], above 10 µM.

On to `Cc1csc2c(NC3C4C=CC(C4)C3C(N)=O)nc(Nc3ccc4[nH]ccc4c3)nc12` (racemic) [Compound 239, Racemic-(2-exo,3-aminocarbonylbicyclo [2.2.1]hept-5-en-2-yl)-N2-[1H-indol-5-yl]-thieno[3,2-d]pyrimidine-2,4-diamine], for which the figures for the IC50 in test [2], in test [5] and in test [4] were below 5 µM, above 10 µM and below 5 µM, respectively.

Turning to `Cc1cc(Nc2ncc(F)c(NC3C4C=CC(C4)C3C(N)=O)n2)ccc1N1CCN(C)CC1` (racemic) [cis exo-exo racemate, N4-(3-aminocarbonylbicyclo [2.2.1]hept-5-en-2-yl)-5-fluoro-N2-[3-methyl-4-(4-methylpiperazin-1-yl)phenyl]-2,4-pyrimidinediamine], the “potency of exo-exo racemate relative to endo-endo racemate” value in test [6] (all cell lines tested) is “approximately twenty-fold”. The “antiproliferative activity against tumor cell types” value in test [6] was “exhibit antiproliferative activity”.

Consider `Cc1cc(Nc2ncc(F)c(NC3C4C=CC(C4)C3C(N)=O)n2)ccc1N1CCN(C)CC1` [(1S,2S,3R,4R) diastereomer, N4-(3-aminocarbonylbicyclo [2.2.1]hept-5-en-2-yl)-5-fluoro-N2-[3-methyl-4-(4-methylpiperazin-1-yl)phenyl]-2,4-pyrimidinediamine], for which the “IC50s against tumor cell lines” value in test [6] (isolated stereoisomers) was “micromolar range”.

`NC(=O)[C@@H]1[C@H](Nc2nc(Nc3cccc(F)c3)nc3[nH]cnc23)[C@H]2C=C[C@@H]1C2` [Compound 109, (1R,2R,3S,4S)-N6-(3-Aminocarbonylbicyclo[2.2. 1]hept-5-en-2-yl)-N2-(3-fluoro)phenyl-1H-purine-2,6-diamine]: the 50% inhibitory concentration (IC50) in test [1] was below 1 µM.

In the case of `NC(=O)[C@@H]1[C@H](Nc2nc(Nc3cccc(OCCN4CCOCC4)c3)nc3[nH]cnc23)[C@H]2C=C[C@@H]1C2` [Compound 112, (1R,2R,3S,4S)-N6-(3-Aminocarbonylbicyclo[2.2. 1]hept-5-en-2-yl)-N2-[3-(2-morpholin-4-yl-ethoxy)phenyl]-1H-purine-2,6-diamine], the IC50 in test [1] was below 1 µM.

Molecule `NC(=O)[C@H]1[C@@H](Nc2nc(Nc3cccc(OCCN4CCOCC4)c3)nc3[nH]cnc23)[C@@H]2C=C[C@H]1C2` [Compound 113, (1S,2S,3R,4R)-N6-(3-Aminocarbonylbicyclo[2.2. 1]hept-5-en-2-yl)-N2-[3-(2-morpholin-4-yl-ethoxy)phenyl]-1H-purine-2,6-diamine] gave an IC50 in test [1] below 1 µM.

In turn, `NC(=O)[C@@H]1[C@H](Nc2nc(Nc3ccc(Cc4ccncc4)cc3)nc3[nH]cnc23)[C@H]2C=C[C@@H]1C2` [Compound 148, (1R,2R,3S,4S)-N6-(3-Aminocarbonylbicyclo[2.2. 1]hept-5-en-2-yl)-N2-[4-(4-pyridinylmethyl)phenyl]-1H-purine-2,6-diamine] gave an IC50 in test [1] below 1 µM.

As to `Cc1cc(Nc2ncc(F)c(NC3CCCC3C(N)=O)n2)ccc1N1CCN(C)CC1` [trans (1S,2S) diastereomer, N4-(2-aminocarbonylcyclopent-1-yl)-5-fluoro-N2-[4-(4-methylpiperazin-1-yl)-3-methylphenyl]-2,4-pyrimidinediamine], the “antiproliferative activity against tumor cell types” value in test [6] and in test [6] (listed as trans(1S,2S)) was “relatively inactive” in each case.

In general, IC50 refers to the concentration at which inhibition is half-maximal.
